From patent US5738858A, “Skin care compositions containing fatty hydroxyethyl imidazoline surfactants and retinol or retinyl ester” (priority 1996, dated 1998)

Experiments:
[1] = tested on: keratinocyte differentiation (TGase 1); experiment: Transglutaminase (TGase 1) ELISA, keratinocyte differentiation (Example 4); assay type: cell-based, human; conditions: used alone; Table 4
Protocol: (§1) Human keratinocytes, isolated from neonatal foreskin by trypsin treatment were grown in Dulbecco Modification Eagle (DME) Hams F12 (1:1) medium/10% fetal calf serum in the presence of irradiated 3T3 mouse fibroblasts for establishing dividing keratinocyte colonies. Cells were grown under the above condition until their second passage and kept frozen for future use. Frozen second passage keratinocytes were thawed and plated into the above medium and grown for five days before they were switched to a serum-free MCDB 153-based medium keratinocyte growth medium (KGM) from Clonetics Corporation, San Diego, Calif., containing 0.15 mM Ca, or keratinocyte serum-free media (KSFM) from GIBCO containing 0.09 mM Ca). On day 7, when the cells were 80-90% confluent, they were trypsinized and plated in the serum-free medium for the various experiments.
During the process of terminal differentiation in the epidermis, a 15 nm thick layer of protein, known as the cornified envelope (CE) is formed on the inner surface of the cell periphery. The CE is composed of numerous distinct proteins which have been cross-linked together by the formation of N ^ε -(γ-glutamyl) lysine isodipeptide bonds catalyzed by the action of at least two different transglutaminases (TGases) expressed in the epidermis. TGase 1 is expressed in abundance in the differentiated layers of the epidermis, especially the granular layer, but is absent in the undifferentiated basal epidermis. […]
(§2) Keratinocytes (cultured as described above) were plated in 96 well plates at a density of 3,000 cells per well in 2000 μl of cell culture media. […] The absorbance of samples was read at 492 nm in the plate reader. […] Transglutaminase I levels were determined by subtracted background from the readings from each treatment and determining the mean s.d. for the replicates exposed to both antibodies.
(§3) The level of TGase-1 detected after treatment of the cells could be influenced by cell number, i.e., the greater the number of cells the greater the level of TGase-1 detected. […]

[2] = tested on: keratinocyte proliferation; experiment: 3H-Thymidine incorporation / keratinocyte proliferation (Example 1A); assay type: cell-based, human; conditions: […]10^-7 to […]10^-9 M; vs ethanol control and retinol treatments
[3] = tested on: keratinocyte differentiation (TGase 1); experiment: Transglutaminase (TGase 1) ELISA normalized to DNA, keratinocyte differentiation (Example 1B); assay type: cell-based, human; conditions: […]10^-7 to […]10^-9 M; vs ethanol control
Protocol: as §1, with “experiments. […]” for “experiments.”
as §2, with “200” for “2000”, “μl” for “μl of cell culture”, “TGase” for “Transglutaminase I”, “subtracting” for “subtracted”, “mean±s.d.” for “the mean s.d.”, “Ab.” for “antibodies.”
as §3

ARAT = experiment: In vitro microsomal esterification of retinol, ARAT catalyzed (retinyl palmitate formation); conditions: Table 2, 1 hour, 37° C.
Protocol: (§4) A solution containing 0.1M sodium phosphate pH 7 buffer, 5 mM dithiothreitol, 2 mg/ml bovine serum albumin, 40 micromolar palmitoyl CoA, 40 micromolar dilauroyl phosphatidyl choline, 10 micromolar retinol and a test compound or solvent blank, was incubated for 1 hour at 37° C. with a microsomal fraction isolated from bovine retinal pigment epithelial cells. After incubation, the reaction was quenched by addition of an equal volume of ethanol, and the retinyl esters formed (retinyl palmitate from the ARAT catalyzed reaction, and retinyl laurate from the LRAT catalyzed reaction) were extracted with hexane.

LRAT = biological target: T1, LRAT (Bos taurus, UniProt Q9BGL2); experiment: In vitro microsomal esterification of retinol, LRAT catalyzed (retinyl laurate formation); assay type: biochemical, bovine; conditions: Table 2, 1 hour, 37° C.
T1 construct: microsomal fraction isolated from bovine retinal pigment epithelial cells; from tissue; host or cells: microsomes of bovine retinal pigment epithelial cells (method cited: Saari and Bredberg, J. Biol. Chem. 1988)
T1 sequence (Q9BGL2 1-230): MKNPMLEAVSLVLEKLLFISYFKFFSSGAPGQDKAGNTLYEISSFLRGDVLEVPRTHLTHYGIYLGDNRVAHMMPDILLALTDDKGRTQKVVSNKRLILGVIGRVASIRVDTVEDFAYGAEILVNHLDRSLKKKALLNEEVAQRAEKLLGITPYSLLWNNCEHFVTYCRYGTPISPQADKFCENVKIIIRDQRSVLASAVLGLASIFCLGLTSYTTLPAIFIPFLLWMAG
Protocol: as §4

SMILES | keratinocyte differentiation (in words) [1] | % INHIB. ARAT (ARAT; 100 μM) [%] | also measured
CC1=C(/C=C/C(C)=C/C=C/C(C)=C/C(=O)O)C(C)(C)CCC1 [RA, retinoic acid] | substantially decreased keratinocyte differentiation |  | keratinocyte proliferation (in words) [2]: significantly increased keratinocyte proliferation over both the ethanol control and each of the 2.5×10^-7 M, 2.5×10^-8 M and 2.5×10^-9 M retinol treatments and they did so in a dose dependant manner
CC1=C(/C=C/C(C)=C/C=C/C(C)=C/CO)C(C)(C)CCC1 [ROH, retinol] | did not affect keratinocyte differentiation when used alone |  | keratinocyte differentiation / transglutaminase level (in words) [3]: The decrease in transglutaminase level was dose dependent
CCCCCCCCCCCCCCCC(=O)OC/C=C(C)/C=C/C=C(C)/C=C/C1=C(C)CCCC1(C)C [RP, retinyl palmitate] | did not affect keratinocyte differentiation when used alone |  | 
Nc1ncnc2nc[nH]c12 [adenine] |  | 0 | 
O=C1C(N(CO)C(=O)NCO)N(CO)C(=O)N1CO (stereo not shown) [diazolidinyl urea] |  |  | % INHIB. LRAT (LRAT; 0 μM as printed): 0%; % INHIB. ARAT (ARAT; 0 μM as printed): 0%
CCCCCCCCCCCC(=O)N(C)CC(=O)O [lauroyl sarcosine] |  | 20 | 
CCCCCCCC/C=C\CCCCCCCC(=O)NCCC[N+](C)(C)CC(=O)[O-] [oleamidopropyl betaine] |  |  | % INHIB. LRAT (LRAT; 100 μM): 0%
Cc1ncc(C[n+]2csc(CCO)c2C)c(N)n1 [thiamine] |  | 0 | 
N[C@@H](Cc1c[nH]c2ccccc12)C(=O)O [tryptophan] |  | 0 | 
O=c1cc[nH]c(=O)[nH]1 [uracil] |  | 0 | 
